# Results reported in patent US6331555A, “Treatment of platelet derived growth factor related disorders such as cancers” (priority 1999, dated 2001).
# Read-outs that look alike come from different tables or passages of the source.
# What was measured:
# Format in all cases: cell-based
# PDGFR = PDGFR (Homo sapiens, UniProt P09619); assay: PDGF-stimulated receptor phosphorylation in U1242 cells, ELISA; set-up: U1242 (PDGF-β receptor); host or cells: U1242 MG glioma cells; conditions: for IC50: 100 ng/ml PDGF-BB, read-out: ELISA P-TYR U1242 IC50
# In short: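 U1242 MG cells in 0.5% serum were pretreated with compound for 2 h at 37° C, then stimulated 5–10 min with PDGF-BB (100 ng/ml). Lysates captured on anti-PDGF receptor-coated plates; receptor phosphotyrosine detected by anti-phosphotyrosine ELISA with POD/ABTS read-out at 410 nm.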
# EGFR = target: T1, EGFR (Homo sapiens, UniProt P00533); assay: Receptor tyrosine kinase inhibition, EGFR
# T1 construct: expressed in transfected cells; host or cells: NIH3T3 mouse fibroblasts, retroviral vector
# Description: (§1) For western blotting, cells were plated in 2 mL growth medium into 6-well dishes (500,000 cells per well) and allowed to attach overnight. The medium was replaced with 2 mL MCDB 105 (UCSF Cell Culture Facility) supplemented with 1% FBS. The plates were then incubated overnight at 37° C., ambient CO2. […] After a 7 min incubation at room temperature with ligand, the plates were put on ice and washed three times with 1 mL ice-cold PBS plus 1 mM orthovanadate. Lysis was achieved by pipetting cells in 0.5 mL of buffer containing 50 mM Tris, pH 7.4, 10% glycerol, 1% NP-40, 2 mM EDTA, 1 mM sodium vanadate (Na3 VO4), 10 mM pyrophosphate, 1 mM PMSF, […]. A 300 μL aliquot of each lysate was immediately added to 100 μL 4×Laemmli sample buffer ([…] Tris pH 6.9, 20% glycerol, 7% SDS, 5 mM EDTA, 5% β-mercaptoethanol) containing phosphatase inhibitors, 2 mM Na3 VO4 and 10 mM pyrophosphate. Samples were boiled for 5 min, frozen in dry ice-ethanol, and stored at -80° C. Proteins were resolved by SDS-PAGE (Bio-Rad Miniprotean II) and transferred to nitrocellulose membrane (Schleicher & Schuell) at 120 volts for 1 hr at room temperature in buffer containing 25 mM Tris pH 8.3, 20% methanol, 0.2 M glycine, 0.1% SDS. The integrity of the protein-to-membrane transfer was determined by staining with 1% Ponceau S in 5% acetic acid for 5 min. After destaining in several distilled water rinses, the membrane was soaked overnight in blocking buffer containing 5% milk in Tris-buffered saline, 0.05% Tween 20. Phosphotyresine was detected by incubating the membrane (1 hr at room temperature) with an anti-phosphotyosine antiserum diluted in blocking buffer at 1:3000. For C6 cells, PDGF-β receptor content in the lysates was confirmed in duplicate sample lanes by western blotting using an antibody specific for PDGF-β receptor (UBI). The antibodies were visualized using ECL reagent from Amersham and by exposure to Fuji RX film.
# (§2) For ELISA assays, cells were grown to 80-90% confluency in growth medium and seeded in 96-well tissue culture plates in 0.5% serum at 25,000 to 30,000 cells per well. After overnight incubation in 0.5% serum-containingmedium, cells were changed to serum-free medium and treated with test compound for 2 hr in a 5% CO2, 37° C. incubator. Cells were then stimulated with ligand for 5-10 min followed by lysis with HNTG (20 mM Hepes, 150 mM NaCl, 10% glycerol, 5 mM EDTA, 5 mM Na3 VO4 0.2% Triton X-100, and 2 mM NaPyr). Cell lysates (0.5 mg/well in PBS) were transferred to ELISA plates previously coated with receptor-specific antibody and which had been blocked with 5% milk in TBST (50 mM Tris-HCl pH 7.2, 150 mM NaCl and 0.1% Triton X-100) at room temperature for 30 min. Lysates were incubated with shaking for 1 hr at room temperature. The plates were washed with TBST four times and then incubated with polyclonol anti-phosphotyrosine antibody at room temperature for 30 min. Excess anti-phosphotyrosine antibody was removed by rinsing the plate with TBST four times. Goat anti-rabbit IgG antibody was added to the ELISA plate for 30 min at room temperature followed by rinsing with TBST four more times.
# (§3) The ability of different compound to inhibit different receptor tyrosine kinases was tested.
# FLK-1 = target: T2, FLK-1 (Mus musculus, UniProt P35918); assay: Receptor tyrosine kinase inhibition, FLK-1
# T2 construct: expressed in transfected cells; host or cells: NIH3T3 mouse fibroblasts, retroviral vector
# Description: as §1, §2, §3
# [1] = W = done in Western assay, read-out: FLK-1 IC50 (W)
# T1 sequence (P00533 25-1210): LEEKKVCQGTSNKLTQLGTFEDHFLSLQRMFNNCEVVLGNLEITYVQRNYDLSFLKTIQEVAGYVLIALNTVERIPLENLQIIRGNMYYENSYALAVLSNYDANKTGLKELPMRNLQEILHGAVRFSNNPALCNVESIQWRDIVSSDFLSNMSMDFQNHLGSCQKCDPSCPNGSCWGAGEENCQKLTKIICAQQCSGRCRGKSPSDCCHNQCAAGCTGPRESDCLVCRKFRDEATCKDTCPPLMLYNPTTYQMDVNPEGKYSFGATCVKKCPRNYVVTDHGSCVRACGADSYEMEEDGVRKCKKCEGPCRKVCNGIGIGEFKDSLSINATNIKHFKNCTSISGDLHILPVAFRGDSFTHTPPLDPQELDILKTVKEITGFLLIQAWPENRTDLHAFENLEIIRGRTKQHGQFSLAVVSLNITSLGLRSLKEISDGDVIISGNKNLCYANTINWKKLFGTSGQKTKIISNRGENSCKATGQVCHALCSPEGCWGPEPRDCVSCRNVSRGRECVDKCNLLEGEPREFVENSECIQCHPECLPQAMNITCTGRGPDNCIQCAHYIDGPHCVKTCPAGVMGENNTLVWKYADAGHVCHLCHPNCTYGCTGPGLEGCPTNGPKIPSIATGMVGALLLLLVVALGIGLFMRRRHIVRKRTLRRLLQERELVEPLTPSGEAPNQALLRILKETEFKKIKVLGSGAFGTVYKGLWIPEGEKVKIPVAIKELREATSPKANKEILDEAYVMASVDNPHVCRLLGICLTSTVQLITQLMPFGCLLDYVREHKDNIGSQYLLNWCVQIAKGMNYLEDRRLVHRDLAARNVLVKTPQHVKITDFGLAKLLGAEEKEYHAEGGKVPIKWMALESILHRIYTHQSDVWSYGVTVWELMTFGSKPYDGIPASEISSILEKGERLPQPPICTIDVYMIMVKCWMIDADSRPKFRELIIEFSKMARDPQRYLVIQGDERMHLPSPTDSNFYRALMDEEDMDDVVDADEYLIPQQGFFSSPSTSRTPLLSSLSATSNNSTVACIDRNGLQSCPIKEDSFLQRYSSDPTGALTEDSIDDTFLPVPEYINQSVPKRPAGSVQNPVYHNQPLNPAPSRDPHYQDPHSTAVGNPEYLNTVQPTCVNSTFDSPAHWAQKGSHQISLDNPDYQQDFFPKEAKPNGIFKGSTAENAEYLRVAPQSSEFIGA
# T2 sequence (P35918 20-1345): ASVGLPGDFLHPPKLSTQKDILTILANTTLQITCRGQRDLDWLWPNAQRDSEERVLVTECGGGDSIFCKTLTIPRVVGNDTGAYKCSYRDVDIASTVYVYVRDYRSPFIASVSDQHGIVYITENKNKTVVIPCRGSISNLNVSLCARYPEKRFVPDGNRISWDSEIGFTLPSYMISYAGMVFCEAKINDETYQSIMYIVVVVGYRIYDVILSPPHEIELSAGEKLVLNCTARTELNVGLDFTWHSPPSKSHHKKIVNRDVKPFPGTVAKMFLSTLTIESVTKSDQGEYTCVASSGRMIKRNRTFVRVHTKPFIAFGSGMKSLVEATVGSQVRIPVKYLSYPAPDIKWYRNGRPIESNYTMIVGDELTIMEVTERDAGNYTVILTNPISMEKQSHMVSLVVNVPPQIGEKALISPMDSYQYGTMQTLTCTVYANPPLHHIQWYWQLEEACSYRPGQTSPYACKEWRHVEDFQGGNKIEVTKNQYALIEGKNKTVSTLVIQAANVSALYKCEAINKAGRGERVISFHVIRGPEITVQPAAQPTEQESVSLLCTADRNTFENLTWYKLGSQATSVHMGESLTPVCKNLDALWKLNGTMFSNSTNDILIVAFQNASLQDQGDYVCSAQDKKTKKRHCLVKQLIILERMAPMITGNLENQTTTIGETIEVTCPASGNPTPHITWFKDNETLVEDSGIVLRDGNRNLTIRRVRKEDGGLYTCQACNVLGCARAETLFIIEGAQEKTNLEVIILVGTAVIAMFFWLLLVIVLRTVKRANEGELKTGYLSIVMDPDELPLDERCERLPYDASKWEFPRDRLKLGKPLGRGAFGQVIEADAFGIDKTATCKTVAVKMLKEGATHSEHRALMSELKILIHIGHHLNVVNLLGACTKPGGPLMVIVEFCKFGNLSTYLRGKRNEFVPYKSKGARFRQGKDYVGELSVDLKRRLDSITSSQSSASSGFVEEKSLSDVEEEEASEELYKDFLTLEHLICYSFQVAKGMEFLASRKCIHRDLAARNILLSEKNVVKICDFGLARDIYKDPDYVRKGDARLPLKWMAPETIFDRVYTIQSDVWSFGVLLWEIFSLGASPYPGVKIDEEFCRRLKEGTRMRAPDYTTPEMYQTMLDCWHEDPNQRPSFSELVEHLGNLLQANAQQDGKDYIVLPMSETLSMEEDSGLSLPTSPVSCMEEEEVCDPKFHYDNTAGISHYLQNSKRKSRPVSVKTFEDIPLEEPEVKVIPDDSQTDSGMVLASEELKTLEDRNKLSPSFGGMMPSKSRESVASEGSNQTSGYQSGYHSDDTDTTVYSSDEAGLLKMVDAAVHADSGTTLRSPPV
# Sequence of PDGFR (P09619 33-1106): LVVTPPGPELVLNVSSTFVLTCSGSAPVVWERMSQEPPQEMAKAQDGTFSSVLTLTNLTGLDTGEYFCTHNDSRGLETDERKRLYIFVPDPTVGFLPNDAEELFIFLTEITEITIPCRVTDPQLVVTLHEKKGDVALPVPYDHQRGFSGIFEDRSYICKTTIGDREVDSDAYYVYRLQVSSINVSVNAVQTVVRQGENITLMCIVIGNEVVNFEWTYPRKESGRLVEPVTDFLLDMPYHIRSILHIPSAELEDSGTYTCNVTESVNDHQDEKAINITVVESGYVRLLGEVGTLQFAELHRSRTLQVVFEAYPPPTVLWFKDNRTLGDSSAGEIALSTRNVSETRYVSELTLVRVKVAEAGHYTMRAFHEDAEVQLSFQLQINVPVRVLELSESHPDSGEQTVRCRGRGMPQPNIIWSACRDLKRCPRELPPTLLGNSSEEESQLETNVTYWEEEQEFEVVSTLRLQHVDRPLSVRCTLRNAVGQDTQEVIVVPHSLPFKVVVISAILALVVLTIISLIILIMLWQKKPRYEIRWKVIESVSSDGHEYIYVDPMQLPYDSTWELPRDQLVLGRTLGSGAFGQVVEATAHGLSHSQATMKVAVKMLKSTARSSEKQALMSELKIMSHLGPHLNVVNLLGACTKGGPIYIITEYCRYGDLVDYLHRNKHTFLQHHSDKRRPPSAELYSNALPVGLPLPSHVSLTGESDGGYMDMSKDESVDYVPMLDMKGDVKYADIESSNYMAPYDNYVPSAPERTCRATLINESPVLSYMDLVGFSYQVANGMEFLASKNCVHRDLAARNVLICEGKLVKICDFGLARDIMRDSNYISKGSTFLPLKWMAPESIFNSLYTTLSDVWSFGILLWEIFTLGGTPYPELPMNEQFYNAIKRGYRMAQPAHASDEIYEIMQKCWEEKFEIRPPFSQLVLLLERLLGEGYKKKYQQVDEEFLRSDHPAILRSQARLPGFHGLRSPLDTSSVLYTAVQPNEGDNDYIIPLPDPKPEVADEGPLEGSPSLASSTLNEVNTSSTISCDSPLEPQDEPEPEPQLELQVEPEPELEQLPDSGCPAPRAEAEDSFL
SMILES,IC50 (PDGFR),"IC50 (EGFR; W = done in Western assay, read-out: EGFR ID50 (W))",IC50 (FLK-1; read-out: FLK-1 IC50),EGF receptor phosphorylation (EGFR),inhibition of PDGF-stimulated receptor phosphorylation (PDGFR),IC50 (FLK-1; [1]),IC50 (EGFR; read-out: EGFR ID50)
"Cc1oncc1C(=O)Nc1ccc(C(F)(F)F)cc1 [Compound A10, 5-methylisoxazole-4 carboxylic acid-(4-trifluromethyl)-anilide]",65 µM,–,–,little if any effect on EGF-receptor or HER2 phosphorylation,–,–,–
COc1cc2ncc(-c3ccccc3)nc2cc1OC [Compound G14],0.8 µM,–,–,do not effect EGF or HER2 phosphorylation,had the lowest IC50,> 30 µM,–
Cc1cc2ncc(-c3ccccc3)nc2cc1C [Compound G13],–,–,–,do not effect EGF or HER2 phosphorylation,had the lowest IC50,> 10 µM,–
CN(C)CCCn1cc(C=C(C#N)c2[nH]nc(N)c2C#N)c2ccccc21 [Compound D15],20 µM,–,> 50 µM,–,–,–,–
N#CC(=Cc1c[nH]c2ccccc12)c1[nH]nc(N)c1C#N [Compound D14],20 µM,–,> 50 µM,do not effect EGF or HER2 phosphorylation,–,–,> 100 µM
N#CC(=Cc1c[nH]c2ccccc12)C(N)=S [Compound D11],8 µM,–,> 50 µM,–,–,–,–
c1ccc(-c2cnc3cc4ccccc4cc3n2)cc1 [Compound G22],1 µM,–,–,–,–,–,> 100 µM

# Second part, led by results:
IC50 (PDGFR),"IC50 (EGFR; W = done in Western assay, read-out: EGFR ID50 (W))",IC50 (FLK-1; read-out: FLK-1 IC50),SMILES,EGF receptor phosphorylation (EGFR),inhibition of PDGF-stimulated receptor phosphorylation (PDGFR),IC50 (FLK-1; [1]),IC50 (EGFR; read-out: EGFR ID50)
10 µM,500 µM,–,Cc1cc2nc(-c3ccccc3)c(=O)[nH]c2cc1C [Compound G18],–,–,–,–
45 µM,–,> 50 µM,O=c1c2ccccc2nc(C=Cc2ccc(O)c(O)c2)n1CCO [Compound F10],–,–,–,–
